# Numbered stars: 1 amine (or outer) side, 2 acyl side, 3 side chain; on linkers, the order of the positions; unused ones are H or OH. Bridge positions count the residues as written; N and C are the ends. Square brackets hold non-standard residues; d marks the D form. Peptide text beside a SMILES is read from it. * marks the point of attachment. C20 diacid = O=C(O)CCCCCCCCCCCCCCCCCCC(=O)*; γGlu = O=C(O)[C@H](CCC(=O)[*:2])N[*:1]; Hyp = O=C(O)[C@@H]1C[C@@H](O)CN1
# What was measured:
# [1] = biological target: T1, hAMY3 receptor (Homo sapiens, UniProt O60896+P30988); test: cAMP assay for in vitro receptor activation, hAMY3-R; type: cell-based; settings: cAMP assay, hAMY3 receptor; read-out: hAMY3R EC50
# T1 sequence (P30988 25-474): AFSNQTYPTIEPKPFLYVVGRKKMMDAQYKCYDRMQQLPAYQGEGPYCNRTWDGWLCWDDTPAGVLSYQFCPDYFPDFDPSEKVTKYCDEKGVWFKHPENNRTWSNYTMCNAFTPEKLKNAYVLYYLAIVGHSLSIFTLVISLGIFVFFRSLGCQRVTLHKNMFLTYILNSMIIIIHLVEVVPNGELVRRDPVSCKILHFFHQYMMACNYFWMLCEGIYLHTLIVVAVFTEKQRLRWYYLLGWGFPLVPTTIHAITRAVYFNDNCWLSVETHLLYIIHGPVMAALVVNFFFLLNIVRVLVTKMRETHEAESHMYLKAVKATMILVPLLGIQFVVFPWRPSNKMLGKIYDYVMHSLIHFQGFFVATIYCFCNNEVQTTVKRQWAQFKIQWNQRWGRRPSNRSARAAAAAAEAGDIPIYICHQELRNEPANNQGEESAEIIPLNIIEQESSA
# T1 sequence (O60896 24-148 partner): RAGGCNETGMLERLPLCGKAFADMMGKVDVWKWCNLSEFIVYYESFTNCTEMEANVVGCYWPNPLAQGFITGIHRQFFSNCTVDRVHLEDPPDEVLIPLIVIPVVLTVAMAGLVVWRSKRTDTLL
# How it was run: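 Receptor activation was measured as cAMP accumulation in a monoclonal cell line stably overexpressing hAMY3. Stimulation with graded doses lasted 30 min at room temperature in the presence of 0.5 mM IBMX, with human amylin as positive control.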
# [2] = Acute food intake study in lean rats; type: in vivo, rat; settings: 10 nmol/kg, single SC injection, lean healthy rats
# Protocol: General Protocols for Acute Food Intake Study
# The effect on cumulative food intake was measured in male Sprague Dawley rats (6 weeks of age, Taconic, Denmark) following a single dose using a fully automated food intake monitoring system (HM-2; MBRose ApS, Faaborg, Denmark), allowing for advanced synchronous real-time monitoring of food intake behaviour of individual animals. The animals were housed in groups of 4 in a light-, temperature-, and humidity-controlled room (a 12/12 LD cycle, lights on at 02:00 AM; 22±2° C.; 50% relative humidity). The mice had ad libitum access to regular chow diet (Altromin 1324, Brogaarden A/S, Lynge, Denmark) and domestic quality tap water. Mice arrived at day 7, and a minimum of 5 days of habituation to the system was allowed prior to beginning of the study. During these days, the animals were handled daily to accustom them to the experimental paradigm. On the day of dosing, the animals were randomized into groups according to body weight. Animals were fasted for four hours prior to dosing. Animals were dosed SC 30 or 180 min prior to lights out, and food intake data were collected automatically for a total of 48 h post-dosing with automatic food recordings every 5 min.
# [3] = biological target: hAM1 receptor (Homo sapiens, UniProt O60895+Q16602); test: cAMP assay for in vitro receptor activation, hAM1-R; type: cell-based; settings: cAMP assay, hAM1 receptor; read-out: hAM1R EC50
# hAM1 receptor, sequence (Q16602 23-461): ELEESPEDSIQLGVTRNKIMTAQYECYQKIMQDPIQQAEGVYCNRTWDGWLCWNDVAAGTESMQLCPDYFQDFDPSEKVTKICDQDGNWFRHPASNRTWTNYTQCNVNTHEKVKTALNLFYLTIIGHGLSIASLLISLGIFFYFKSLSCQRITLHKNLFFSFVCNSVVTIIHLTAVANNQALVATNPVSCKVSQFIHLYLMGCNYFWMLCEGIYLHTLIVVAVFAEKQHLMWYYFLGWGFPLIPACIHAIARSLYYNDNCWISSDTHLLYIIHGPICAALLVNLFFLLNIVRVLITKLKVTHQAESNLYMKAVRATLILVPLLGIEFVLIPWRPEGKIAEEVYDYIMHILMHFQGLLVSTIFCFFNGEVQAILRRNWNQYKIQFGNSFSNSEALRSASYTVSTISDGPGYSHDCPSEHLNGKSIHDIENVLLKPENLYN
# hAM1 receptor, sequence (O60895 43-175 partner): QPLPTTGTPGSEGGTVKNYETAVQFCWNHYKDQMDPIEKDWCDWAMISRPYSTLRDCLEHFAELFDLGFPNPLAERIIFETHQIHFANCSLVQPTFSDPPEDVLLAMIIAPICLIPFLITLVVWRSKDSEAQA
# How it was run: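 Read-out is intracellular cAMP as a measure of receptor activation. Cells stably overexpressing hAM1 were subcloned to a monoclonal line, then thawed and seeded at 8000 cells/well in DPBS with 0.05% casein and the phosphodiesterase inhibitor IBMX at 0.5 mM.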
# [4] = Physical stability of peptide analogues (Thioflavin T fibrillation); type: physicochemical; settings: maximum ThT signal normalized between hAMY maximum and buffer background; 40° C., shaking, four days; pH 7 per table title
# How it was run: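 Samples are stressed at 40 °C for four days, being shaken at 700 rpm before each 10-min fluorescence reading of 4 μM Thioflavin T. Buffers were pH 4 acetate or pH 7 phosphate. Reported values are smoothed maximum ThT signals as a percentage of the hAMY-to-background range.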
Structure (SMILES),EC50 [1],"cumulative food intake, % to vehicle [2]","Average cumulative food intake ([2]; up to 48 h, P < 0.001 vs vehicle)",EC50 [3],Max ThT signal (%) [4]
CC[C@H](C)[C@H](NC(=O)[C@H](CCC(N)=O)NC(=O)[C@H](Cc1c[nH]cn1)NC(=O)[C@H](C)NC(=O)[C@H](CC(C)C)NC(=O)[C@H](CCCNC(=N)N)NC(=O)[C@H](CCC(N)=O)NC(=O)[C@@H](NC(=O)[C@@H](NC(=O)[C@@H]1CSSC[C@H](NC(=O)[C@H](CCCCN)NC(=O)CC[C@H](NC(=O)CCCCCCCCCCCCCCCCCCC(=O)O)C(=O)O)C(=O)N[C@@H](CC(N)=O)C(=O)N[C@@H]([C@@H](C)O)C(=O)N[C@@H](C)C(=O)N[C@@H]([C@@H](C)O)C(=O)N1)[C@@H](C)O)C(C)C)C(=O)N[C@@H](C)C(=O)N[C@@H](CCC(N)=O)C(=O)N[C@@H](Cc1ccccc1)C(=O)N[C@H](C(=O)N[C@@H](CC(=O)O)C(=O)N[C@@H](CCCCN)C(=O)N[C@@H](CC(=O)O)C(=O)N[C@@H](CCCCN)C(=O)N[C@@H](CC(=O)O)C(=O)N[C@@H](CC(N)=O)C(=O)N[C@H](C(=O)N[C@@H](C)C(=O)N1CCC[C@H]1C(=O)N1CCC[C@H]1C(=O)N[C@H](C(=O)N[C@@H](CC(N)=O)C(=O)N[C@H](C(=O)NCC(=O)N[C@@H](CO)C(=O)N[C@@H](CC(N)=O)C(=O)N[C@@H](CO)C(=O)N1C[C@H](O)C[C@H]1C(N)=O)C(C)C)[C@@H](C)O)C(C)C)[C@@H](C)O [compound 69] ({C20 diacid-γGlu}-KCNTATCTVQRLAHQIAQFTDKDKDNVAPPTNVGSNS[Hyp]-NH2; disulfide 2-7),0.013 nM,17.52%,7.13 g,–,–
CC[C@H](C)[C@H](NC(=O)[C@H](CCC(N)=O)NC(=O)[C@H](Cc1c[nH]cn1)NC(=O)[C@H](C)NC(=O)[C@H](CC(C)C)NC(=O)[C@H](Cc1c[nH]c2ccccc12)NC(=O)[C@H](CCC(N)=O)NC(=O)[C@@H](NC(=O)[C@@H](NC(=O)[C@@H]1CSSC[C@H](NC(=O)CN)C(=O)N[C@@H](CCCNC(=N)N)C(=O)N[C@@H]([C@@H](C)O)C(=O)NCC(=O)N[C@@H]([C@@H](C)O)C(=O)N1)[C@@H](C)O)C(C)C)C(=O)N[C@@H](Cc1ccc(O)cc1)C(=O)N[C@@H](CCC(N)=O)C(=O)N[C@@H](Cc1ccccc1)C(=O)N[C@H](C(=O)N[C@@H](CC(=O)O)C(=O)N[C@@H](CCCCN)C(=O)N[C@@H](CC(=O)O)C(=O)N[C@@H](CCCCN)C(=O)N[C@@H](CC(=O)O)C(=O)N[C@@H](CC(N)=O)C(=O)N[C@H](C(=O)N[C@@H](C)C(=O)N1CCC[C@H]1C(=O)N[C@@H](CCCNC(=N)N)C(=O)N[C@H](C(=O)N[C@@H](CC(N)=O)C(=O)N[C@H](C(=O)NCC(=O)N1CCC[C@H]1C(=O)N[C@@H](CCC(N)=O)C(=O)NCC(=O)N1C[C@H](O)C[C@H]1C(N)=O)C(C)C)[C@@H](C)O)C(C)C)[C@@H](C)O [compound 323] (H-GCRTGTCTVQWLAHQIYQFTDKDKDNVAPRTNVGPQG[Hyp]-NH2; disulfide 2-7; N-terminus assumed),0.014 nM,–,–,> 5000 nM,27.500%
CC[C@H](C)[C@H](NC(=O)[C@H](CCC(N)=O)NC(=O)[C@H](CCC(=O)O)NC(=O)[C@H](C)NC(=O)[C@H](CC(C)C)NC(=O)[C@H](CCCNC(=N)N)NC(=O)[C@H](C)NC(=O)[C@@H](NC(=O)[C@@H](NC(=O)[C@@H]1CSSC[C@H](NC(=O)[C@@H](N)CCCNC(=N)N)C(=O)N[C@@H](CCC(N)=O)C(=O)N[C@@H]([C@@H](C)O)C(=O)N[C@@H](CO)C(=O)N[C@@H]([C@@H](C)O)C(=O)N1)[C@@H](C)O)C(C)C)C(=O)N[C@@H](C)C(=O)N[C@@H](CCC(N)=O)C(=O)N[C@@H](Cc1ccc(O)cc1)C(=O)N[C@H](C(=O)N[C@@H](CC(=O)O)C(=O)N[C@@H](CCCCN)C(=O)N[C@@H](CC(=O)O)C(=O)N[C@@H](CCCCN)C(=O)N[C@@H](CC(=O)O)C(=O)N[C@@H](CCC(N)=O)C(=O)N[C@H](C(=O)N[C@@H](C)C(=O)N1CCC[C@H]1C(=O)N1CCC[C@H]1C(=O)N[C@H](C(=O)N[C@@H](CC(N)=O)C(=O)N[C@H](C(=O)NCC(=O)N[C@@H](CO)C(=O)N[C@@H](CC(N)=O)C(=O)N[C@@H](CO)C(=O)N1C[C@H](O)C[C@H]1C(N)=O)C(C)C)[C@@H](C)O)C(C)C)[C@@H](C)O [compound 32] (H-RCQTSTCTVARLAEQIAQYTDKDKDQVAPPTNVGSNS[Hyp]-NH2; disulfide 2-7; N-terminus assumed),0.008 nM,–,–,> 5000 nM,5.300%
CC[C@H](C)[C@H](NC(=O)[C@H](CCC(N)=O)NC(=O)[C@H](Cc1c[nH]cn1)NC(=O)[C@H](C)NC(=O)[C@H](CC(C)C)NC(=O)[C@H](CCCNC(=N)N)NC(=O)[C@H](CCC(N)=O)NC(=O)[C@@H](NC(=O)[C@@H](NC(=O)[C@@H]1CSSC[C@H](NC(=O)CN)C(=O)N[C@@H](CCCNC(=N)N)C(=O)N[C@@H](Cc2ccccc2)C(=O)NCC(=O)N[C@@H]([C@@H](C)O)C(=O)N1)[C@@H](C)O)C(C)C)C(=O)N[C@@H](Cc1ccc(O)cc1)C(=O)N[C@@H](CCC(N)=O)C(=O)N[C@@H](Cc1ccccc1)C(=O)N[C@H](C(=O)N[C@@H](CC(=O)O)C(=O)N[C@@H](CCCCN)C(=O)N[C@@H](Cc1ccccc1)C(=O)N[C@@H](CCCCN)C(=O)N[C@@H](CC(=O)O)C(=O)N[C@@H](CC(N)=O)C(=O)N[C@H](C(=O)N[C@@H](C)C(=O)N1CCC[C@H]1C(=O)N[C@@H](CCCNC(=N)N)C(=O)N[C@@H](CO)C(=O)N[C@@H](CCCCN)C(=O)N[C@H](C(=O)N[C@@H](CO)C(=O)N1CCC[C@H]1C(=O)N[C@@H](CCC(N)=O)C(=O)N[C@H](C(=O)N1C[C@H](O)C[C@H]1C(N)=O)[C@@H](C)O)[C@@H](C)CC)C(C)C)[C@@H](C)O [compound 212] (H-GCRFGTCTVQRLAHQIYQFTDKFKDNVAPRSKISPQT[Hyp]-NH2; disulfide 2-7; N-terminus assumed),0.153 nM,–,–,> 5000 nM,1.900%
CC[C@H](C)[C@H](NC(=O)[C@H](CCC(N)=O)NC(=O)[C@H](Cc1c[nH]cn1)NC(=O)[C@H](C)NC(=O)[C@H](CC(C)C)NC(=O)[C@H](Cc1c[nH]c2ccccc12)NC(=O)[C@H](CCC(N)=O)NC(=O)[C@@H](NC(=O)[C@@H](NC(=O)[C@@H]1CSSC[C@H](NC(=O)[C@@H](N)CCCCN)C(=O)N[C@@H](CC(N)=O)C(=O)N[C@@H]([C@@H](C)O)C(=O)N[C@@H](C)C(=O)N[C@@H]([C@@H](C)O)C(=O)N1)[C@@H](C)O)C(C)C)C(=O)N[C@@H](Cc1ccc(O)cc1)C(=O)N[C@@H](CCC(N)=O)C(=O)N[C@@H](Cc1ccccc1)C(=O)N[C@H](C(=O)N[C@@H](CC(=O)O)C(=O)N[C@@H](CCCCN)C(=O)N[C@@H](C)C(=O)N[C@@H](CCCCN)C(=O)N[C@@H](CC(=O)O)C(=O)N[C@@H](CC(N)=O)C(=O)N[C@H](C(=O)N[C@@H](C)C(=O)N1CCC[C@H]1C(=O)N1CCC[C@H]1C(=O)N[C@H](C(=O)N[C@@H](CC(N)=O)C(=O)N[C@H](C(=O)NCC(=O)N[C@@H](CO)C(=O)N[C@@H](CC(N)=O)C(=O)NCC(=O)N1C[C@H](O)C[C@H]1C(N)=O)C(C)C)[C@@H](C)O)C(C)C)[C@@H](C)O [compound 320] (H-KCNTATCTVQWLAHQIYQFTDKAKDNVAPPTNVGSNG[Hyp]-NH2; disulfide 2-7; N-terminus assumed),0.009 nM,–,–,> 5000 nM,11.100%
